Measurements as given in US20240101556A1, “COMPOUNDS AND COMPOSITIONS FOR TREATING CONDITIONS ASSOCIATED WITH STING ACTIVITY” (IFM Due, Inc., priority 2021, published 2024).
pEC50: −log10 of the molar value.

Molecular target: T1, hSTING (Homo sapiens, UniProt Q86WV6, G230A/H232R/R293Q/R71H)
T1 construct: host or cells: THP1-Dual KO-IFNAR2 cells (human monocytic line)
Assay: STING reporter assay (luciferase) in THP1-Dual KO-IFNAR2 cells stimulated with 2′3′cGAMP
Format: cell-based
Settings: 2′3′cGAMP 15 μM with Lipofectamine 2000, 24 h, luciferase reporter activity, compounds 0.0017-100 μM
Experimental: STING pathway activation by the compounds described herein was measured using THP1-Dual™ cells (KO-IFNAR2).
THP1-Dual™ KO-IFNAR2 Cells (obtained from invivogen) were maintained in RPMI, 10% FCS, 5 ml P/S, 2 mM L-glut, 10 mM Hepes, and 1 mM sodium pyruvate. Compounds were spotted in empty 384 well tissue culture plates (Greiner 781182) by Echo for a final concentration of 0.0017-100 μM. Cells were plated into the TC plates at 40 μL per well, 2×10E6 cells/mL. For activation with STING ligand, 2′3′cGAMP (MW 718.38, obtained from Invivogen), was prepared in Optimem media.
The following solutions were prepared for each 1×384 plate: • Solution A: 2 mL Optimem with one of the following stimuli: • 60 μL of 10 mM 2′3′cGAMP→150 μM stock • Solution B: 2 mL Optimem with 60 μL Lipofectamine 2000→Incubate 5 min at RT
2 mL of solution A and 2 m1 Solution B was mixed and incubated for 20 min at room temperature (RT). 20 μL of transfection solution (A+B) was added on top of the plated cells, with a final 2′3′cGAMP concentration of 15 μM. The plates were then centrifuged immediately at 340 g for 1 minute, after which they were incubated at 37° C., 5% CO2, >98% humidity for 24 h. Luciferase reporter activity was then measured. EC50 values were calculated by using standard methods known in the art.
Luciferase reporter assay: 10 μL of supernatant from the assay was transferred to white 384-plate with flat bottom and squared wells. One pouch of QUANTI-Luc™ Plus was dissolved in 25 mL of water. 100 μL of QLC Stabilizer per 25 mL of QUANTI-Luc™ Plus solution was added. 50 μL of QUANTI-Luc™ Plus/QLC solution per well was then added. Luminescence was measured on a Platereader (e.g., Spectramax I3X (Molecular Devices GF3637001)).
Luciferase reporter activity was then measured. EC50 values were calculated by using standard methods known in the art.

T1 sequence (Q86WV6 whole entry R71H/G230A/H232R/R293Q): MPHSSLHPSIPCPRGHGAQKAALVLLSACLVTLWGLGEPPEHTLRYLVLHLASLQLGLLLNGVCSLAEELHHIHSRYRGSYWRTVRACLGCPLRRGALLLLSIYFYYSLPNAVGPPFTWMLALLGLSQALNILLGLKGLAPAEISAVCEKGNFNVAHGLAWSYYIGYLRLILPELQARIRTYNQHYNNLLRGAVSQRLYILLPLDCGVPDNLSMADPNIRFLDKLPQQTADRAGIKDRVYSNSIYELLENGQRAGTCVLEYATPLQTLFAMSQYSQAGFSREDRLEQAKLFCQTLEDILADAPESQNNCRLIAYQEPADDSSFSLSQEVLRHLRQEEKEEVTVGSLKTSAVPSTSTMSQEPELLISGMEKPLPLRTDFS

SMILES	pEC50
O=C(Nc1ccc(C(F)(F)F)cc1)Nc1c[nH]c2ccc(N3CCN(CC4CC4)CC3)nc12 [Compound 117, 3-{5-[4-(cyclopropylmethyl)piperazin-1-yl]-1H-pyrrolo[3,2-b]pyridin-3-yl}-1-[4-(trifluoromethyl)phenyl]urea]	4.00 to 5.30
O=C(Nc1ccc(C(F)(F)F)cc1)Nc1c[nH]c2ccc(N3CCN(CCC(F)(F)F)CC3)nc12 [Compound 123, 1-[4-(trifluoromethyl)phenyl]-3-{5-[4-(3,3,3-trifluoropropyl)piperazin-1-yl]-1H-pyrrolo[3,2-b]pyridin-3-yl}urea]	4.00 to 5.30
O=C(Nc1ccc(C(F)(F)F)cc1)Nc1c[nH]c2ccc(N3CCN(C4CCC(C(F)(F)F)CC4)CC3)nc12 (stereo not shown) [Compound 115, 3-(5-{4-[4-(trifluoromethyl)cyclohexyl]piperazin-1-yl}-1H-pyrrolo[3,2-b]pyridin-3-yl)-1-[4-(trifluoromethyl)phenyl]urea]	4.00 to 5.30
O=C(Nc1ccc(C(F)(F)F)cc1)Nc1c[nH]c2ccc(N3CCN(CC(F)(F)F)CC3)nc12 [Compound 118, 1-(5-(4-(2,2,2-trifluoroethyl)piperazin-1-yl)-1H-pyrrolo[3,2-b]pyridin-3-yl)-3-(4-(trifluoromethyl)phenyl)urea]	4.00 to 5.30
CC(C)(C)OC(=O)N1CCN(c2ccc3[nH]cc(NC(=O)Nc4ccc(C(F)(F)F)cc4)c3n2)CC1 [Compound 128, tert-butyl 4-(3-(3-(4-(trifluoromethyl)phenyl)ureido)-1H-pyrrolo[3,2-b]pyridin-5-yl)piperazine-1-carboxylate]	4.00 to 5.30
CCN1CCN(c2ccc3[nH]cc(NC(=O)Nc4ccc(C(F)(F)F)c(Cl)c4)c3n2)CC1 [Compound 126, 1-(3-chloro-4-(trifluoromethyl)phenyl)-3-(5-(4-ethylpiperazin-1-yl)-1H-pyrrolo[3,2-b]pyridin-3-yl)urea]	4.00 to 5.30
CC(C)c1ccn(-c2ccc3[nH]cc(NC(=O)Nc4ccc(C(F)(F)F)cc4)c3n2)n1 [Compound 132, 1-(5-(3-isopropyl-1H-pyrazol-1-yl)-1H-pyrrolo[3,2-b]pyridin-3-yl)-3-(4-(trifluoromethyl)phenyl)urea]	4.00 to 5.30
CC(C)OC1CCC(N2CCN(c3ccc4[nH]cc(NC(=O)Nc5ccc(C(F)(F)F)cc5)c4n3)CC2)CC1 (stereo not shown) [Compound 113, 3-(5-{4-[4-(propan-2-yloxy)cyclohexyl]piperazin-1-yl}-1H-pyrrolo[3,2-b]pyridin-3-yl)-1-[4-(trifluoromethyl)phenyl]urea]	4.00 to 5.30
CN1CCN(c2ccc3[nH]cc(NC(=O)Nc4ccc(C(F)(F)F)cc4)c3n2)CC1 [Compound 125, 1-(5-(4-methylpiperazin-1-yl)-1H-pyrrolo[3,2-b]pyridin-3-yl)-3-(4-(trifluoromethyl)phenyl)urea]	4.00 to 5.30
O=C(Nc1ccc(C(F)(F)F)cc1)Nc1c[nH]c2ccc(N3CCN(C4CCC(F)(F)CC4)CC3)nc12 [Compound 116, 3-{5-[4-(4,4-difluorocyclohexyl)piperazin-1-yl]-1H-pyrrolo[3,2-b]pyridin-3-yl}-1-[4-(trifluoromethyl)phenyl]urea]	4.00 to 5.30
CC(C)c1cnn(-c2ccc3[nH]cc(NC(=O)Nc4ccc(C(F)(F)F)cc4)c3n2)c1 [Compound 131, 1-(5-(4-isopropyl-1H-pyrazol-1-yl)-1H-pyrrolo[3,2-b]pyridin-3-yl)-3-(4-(trifluoromethyl)phenyl)urea]	4.00 to 5.30
CC(CC(F)(F)F)N1CCN(c2ccc3[nH]cc(NC(=O)Nc4ccc(C(F)(F)F)cc4)c3n2)CC1 (stereo not shown) [Compound 114, 3-{5-[4-(4,4,4-trifluorobutan-2-yl)piperazin-1-yl]-1H-pyrrolo[3,2-b]pyridin-3-yl}-1-[4-(trifluoromethyl)phenyl]urea]	4.00 to 5.30

Next, values leading:

pEC50	SMILES
4.00 to 5.30	COCCN1CCN(c2ccc3[nH]cc(NC(=O)Nc4ccc(C(F)(F)F)cc4)c3n2)CC1 [Compound 122, 3-{5-[4-(2-methoxyethyl)piperazin-1-yl]-1H-pyrrolo[3,2-b]pyridin-3-yl}-1-[4-(trifluoromethyl)phenyl]urea]
4.00 to 5.30	CC(C)CN1CCN(c2ccc3[nH]cc(NC(=O)Nc4ccc(C(F)(F)F)cc4)c3n2)CC1 [Compound 124, 3-{5-[4-(2-methylpropyl)piperazin-1-yl]-1H-pyrrolo[3,2-b]pyridin-3-yl}-1-[4-(trifluoromethyl)phenyl]urea]
4.00 to 5.30	O=C(Nc1ccc(C(F)(F)F)cc1)Nc1c[nH]c2ccc(N3CCN(Cc4ccccn4)CC3)nc12 [Compound 120, 3-(5-{4-[(pyridin-2-yl)methyl]piperazin-1-yl}-1H-pyrrolo[3,2-b]pyridin-3-yl)-1-[4-(trifluoromethyl)phenyl]urea]
4.00 to 5.30	O=C(Nc1ccc(C(F)(F)F)cc1)Nc1c[nH]c2ccc(N3CCN(Cc4ccccc4)CC3)nc12 [Compound 121, 3-[5-(4-benzylpiperazin-1-yl)-1H-pyrrolo[3,2-b]pyridin-3-yl]-1-[4-(trifluoromethyl)phenyl]urea]
6.00 to 6.70	O=C(Nc1ccc(C(F)(F)F)cc1)Nc1c[nH]c2ccc(N3CCN(c4ccccc4)CC3)nc12 [Compound 129, 1-(5-(4-phenylpiperazin-1-yl)-1H-pyrrolo[3,2-b]pyridin-3-yl)-3-(4-(trifluoromethyl)phenyl)urea]
5.30 to 6.00	O=C(Nc1ccc(C(F)(F)F)cc1)Nc1c[nH]c2ccc(N3CCN(Cc4cccnc4)CC3)nc12 [Compound 119, 3-(5-{4-[(pyridin-3-yl)methyl]piperazin-1-yl}-1H-pyrrolo[3,2-b]pyridin-3-yl)-1-[4-(trifluoromethyl)phenyl]urea]
4.00 to 5.30	CCN1CCN(c2ccc3[nH]cc(NC(=O)Nc4ccc(C(F)(F)F)cc4)c3n2)CC1 [Compound 127, 1-(5-(4-ethylpiperazin-1-yl)-1H-pyrrolo[3,2-b]pyridin-3-yl)-3-(4-(trifluoromethyl)phenyl)urea]
